# Experimental data from patent US6872712B1, “Cyclic glycerophosphates and analogs thereof” (Yeda Research and Development Co. Ltd., priority 1999, dated 2005).
# Assays:
# [1] = tested on: intracellular proteins of target cells (CHO and NIH-3T3 cells); assay: Phosphorylation of intracellular proteins of target cells (general statements); type: cell-based
# Procedure: In accordance with the invention, the phosphorylating activity of the CGs may be measured by any of the methods known in the art. Generally, following incubation of the CG with the target cells, the cells are lysed, the protein concentration in each sample is determined and the level of phosphorylation of the proteins is determined using known methods and suitable and available polyclonal or monoclonal antibodies. Typically, phosphorylation occurs on the tyrosine residues of the protein and such phosphorylation is determined using either polyclonal or monoclonal anti phosphotyrosine antibodies (such as those described below in the Examples). However, in some cases, phosphorylation occurs on the threonine or serine components of the proteins in which case polyclonal or monoclonal anti phosphothreonine or anti phosphoserine antibodies may be used.
# (§1) The cyclic phosphates 1,3 cGP, 1,3 cPP, 1,2 cGP, 1,2 cPP, P-1,3 cGP and P-1,3 cPP and the controls αGP and βGP were dissolved in HBSS, or methanol to form stocks of 1 mM or 10 mM. […] The protein concentration in each sample, as evaluated by the Bradford assay, was in the range of 1-1.5 mg/ml. […] Bound antibodies were detected by horseradish peroxidase-conjugated anti-rabbit antibodies (Transduction Laboratories, Lexington Ky.) after 2 hours incubation at room temperature, using the conventional ECL detection method. […]
# [2] = tested on: perforated CHO cells; assay: Intracellular binding in perforated CHO cells (displacement of 1,3-cP32P); parameters: species or system Chinese hamster; conditions: 20 μM 1,3-cP32P, 5 minutes at 4° C., increasing amounts of competitor (FIG. 9)
# Procedure: Radioactivity was scored after 2 washings with PBS at 4° C. as above. […] In this set of experiments the number of displaceable (i.e. specifically bound) ligands was estimated to be in the range of 10^7-10^8 per cell.
# [3] = Stability of cyclic phosphates in cell lysates (TLC); conditions: 10 mg/ml in PBS mixed with CHO or NIH-3T3 cell lysate (0.1 mg/ml protein), 37°, up to 24 hours
# Excerpt: This distinct difference allowed the qualitative detection of hydrolysis of the cyclic phosphate.
# [4] = Stability of cyclic phosphates in PBS / aqueous solution (TLC); type: physicochemical; conditions: 10 mg/ml in PBS, 37°, up to 24 hours
# Procedure: These possibilities were tested with the 4 cyclic phosphates (1,2 cGP, 1,3 cGP, 1,2 cPP and 1,3 cPPP (see Appendix A) in either aqueous solution or in cell lysates of CHO or NIH-3T3 cells (see Materials and Methods). 10 mg/ml cyclic phosphate in 1 ml of either PBS or PBS mixed with cell lysate (0.1 mg/ml protein) and incubated at 37° for up to 24 hours. Samples were tested at different times by thin layer chromatography on Silica gel 60 with n-propanol, concentrated ammonia, H2O (6:3:1 v/v/v). The Rr values for all 4 cyclic phosphates was in the range of 0.45-0.55 while α-GP and β-GP had Rf=0.14-0.16. This distinct difference allowed the qualitative detection of hydrolysis of the cyclic phosphate.
# [5] = tested on: tyrosine phosphorylated proteins in CHO cells; assay: Tyrosine phosphorylation in CHO cells (Western blot with anti-phosphotyrosine antibodies); type: cell-based, Chinese hamster; conditions: CHO cells, 5 μM or 10 μM, 37° C., 1, 3 or 5 mins, monoclonal antibodies; bands about 35, 60-70, 120 and 38 kD (FIG. 4)
# Procedure: Chinese hamster ovary (CHO) cells (Puck, 1985; Gottesman, 1987) and NIH-3T3 cells (NIH), were used in the following experiments. CHO cells were grown at 37° C. in a humidified 5% CO2 atmosphere in 60×15 mm Petri dishes (Falcon) containing F12 medium supplemented with 10% fetal calf serum (FCS) and 2 mM glutamine. When reaching near confluence, the cells were placed under overnight starvation by replacing the medium to F12+2 mM glutamine with 0.1% FCS. The stimulation experiments were performed with cells which were under starvation for 12-18 hours.
# as §1, with “mM. They were diluted into the cell culture medium to a final concentration of up to 20 μM. At the assigned stimulation time (0.5-20 min.) the medium was aspirated under vacuum and the cells were washed 3 times with cold (4° C.) phosphate buffered saline (PBS).” for “mM.”
# [6] = tested on: Raf1/MAPK cascade; assay: Immunoprecipitation kinase assays (Raf-1, MAPK); type: cell-based, Chinese hamster; conditions: CHO cells, 2 μM for 2 and 5 minutes (FIG. 6)
# Procedure: (§2) (v) Immunoprecipitation kinase assays. Raf-1 Activity was determined by immunoprecipitation with anti-Raf-1 C terminus antibodies (Santa Cruz Biotech, CA) using recombinant MEK1 as a substrate as previously described (Seger, 1994). Mitogen-activated protein kinase (MAPK) activity was determined by immunoprecipitation with anti-ERK2 C terminus antibodies (Santa Cruz Biotech, CA) using MBP as a substrate (Seger, 1994). Jun N-terminal kinase (JNK) activity was determined by purifying the JNK on a GST-Jun (1-97) column followed by phosphorylation (Hibi, 1993).
# (§3) The in-gel kinase assay in the presence of MBP was applied as described in Materials and Methods above to detect stimulation of protein kinases by the cyclic phosphates. CHO cells were treated either with medium (0 control), or with 2 μM, α GP or β GP for 2 minutes, 2 μM […] for 2 and 5 minutes and […] 1,3-cPP for 2 minutes after which the cells were lysed and analyzed.
# (§4) Their apparent molecular weights were around MW of 35-40, 55 and 62 kD. The 35-40 kD protein kinase which was activated by 1,3-cGP (E) could be assigned to the P42 MAPK (ERK 2). In addition, cells were treated as described above and then subjected to Raf-1, MAPK and IP kinase assays and these are presented in the first and second rows of FIG. 6. In parallel, JNK assay was performed (third row, […]).
# [7] = tested on: protein kinases of CHO cells (P42 MAPK (ERK 2)); assay: In-gel kinase assay in the presence of MBP; type: cell-based, Chinese hamster; conditions: 2 μM for 2 and 5 minutes (FIG. 6)
# Procedure: Phosphorylated cell proteins were separated by SDS-PAGE using a gel that was copolymerized with MBP (0.5 mg/ml) and treated as described (Karunuguran et al., EMBO J. 15:254-264, 1996). After electrophoresis, the gel was fixed with isopropanol and denatured using 6M Urea. Renaturation was achieved by gradual removal of the excess of urea followed by extensive washings in a renaturing buffer (16 h, 4° C.) and in a buffer containing […] HEPES pH 7.6, and 20 mM MgCl2 (30 min, 30° C.). The gel was then subjected to phosphorylation in a buffer containing 20 mM HEPES pH 7.6, 20 mM MgCl2, 2 mM DTT, 20 μM ATP and […] [y^32P]-ATP (30° C. for 120 min). Finally the gel was extensively washed, dried, and subjected to autoradiography.
# as §3
# [8] = tested on: Jun N-terminal kinase (JNK); assay: JNK assay (GST-Jun substrate); type: cell-based, Chinese hamster; conditions: CHO cells, 2 μM for 2 and 5 minutes (FIG. 6)
# Procedure: as §2, §4
# [9] = tested on: cell lysate phosphatases; assay: Inhibition of phosphatase activity of cell lysate (PNPP substrate); type: biochemical; conditions: 50 μM, 50 mM PNPP, 90 minutes at 37° C., pH 7.4
# Procedure: Inhibition of phosphatase activity of cell lysate by cyclic phosphates was assayed in 1.0 ml of 50 mM Tris-HCl buffer, pH 7.4, containing 50 mM p-nitrophenyl phosphate, PNPP, as a substrate. Reaction was initiated by the addition of crude cell lysate (100 μg/ml final protein concentration) and terminated after 90 minutes at 37° C. by an addition of 50 μl of 1M NaOH. […] Assays were conducted under the same conditions as above in the presence of 50 μM cyclic phosphate. The enzyme activity in the absence of inhibitor was taken as 100% activity.
# [10] = tested on: estrogen receptor (ER) in human ERmod T47D cells; assay: Estrogen receptor expression in T47D cells (immunostaining, score 0 to 4); type: cell-based; conditions: 1 μM, 7 days of incubation (FIG. 11)
# Procedure: Tumor cells were incubated for 7 days in the absence or presence of 1 μM of 1,3 cGP. On each of the noted days, cells were harvested by trypsinization, washed and fixed by dryng in air. The preparations were then peroxidased and protein blocked. Following this, the cells were labeled with first antibody (mouse-anti-human ER) for 30 mins. at room temperature (RT). After washing, cells were incubated with biotinylated second antibody for 10 min at RT. After washing, the cells were incubated with streptavidin conjugated to horse radish peroxidase and color reaction with the DAB reagent was performed. Background staining was done with hematoxylin (mayer) and the fixation process was completed with water, alcohol and finally xylene immersions. The slides were covered, sealed and examined by a pathologist in a blind fashion. Expression of the ER was scored on a scale of 0 to 4 pulses, where 4 pulses is the highest score.
# [11] = tested on: CHO cells; assay: Uptake of 32P labeled 1,3-cPP by CHO cells; type: cell-based, Chinese hamster; conditions: intact CHO cells, increasing amounts of unlabeled compound
# Procedure: After 2 washings with PBS the cells were disintegrated in 1 M NaOH and radioactivity was scored with a β counter. The insert presents the magnified uptake profile for short incubations (up to 2 minutes) where the intercept (0 time incubation) corresponded to approximately 3×10^6 molecules per cell, while at equilibrium (above 2 hours incubation) incorporation corresponded to approximately 2×10^8 molecules per cell.
# [12] = tested on: insulin receptor; assay: Tyrosine phosphorylation of the insulin receptor in CHO-T cells; type: cell-based; conditions: 20 mins
# Procedure: Group 4: 0.1 μM 1,3, cPP only.
# Tyrosine phosphorylation was determined using anti-phosphotyrosine antibody (as described above).
molecule,measurement,setting,value
"O=P(O)(O)OCC(O)CO (stereo in doubt) [αGP, L-α-glycerophosphate, reference compound]",level of phosphorylation in intracellular proteins after extracellular application,[1],lack this activity
same,"displacement of 1,3-cP32P in perforated CHO cells",[2],ineffective
"O=P1(O)OCC(CO)O1 (stereo not drawn) [1,2 cGP, 1,2 cyclic glycerophosphate]",hydrolysis to the linear form by cell lysate,[3],No hydrolysis
same,hydrolysis to the linear form in PBS,[4],No hydrolysis
"CC1COP(=O)(O)O1 (stereo not drawn) [1,2 cPP, 1,2 cyclic propanediol phosphate]",hydrolysis to the linear form by cell lysate,[3],No hydrolysis
same,kinetics of tyrosine phosphorylation,[5],enhanced tyrosine phosphorylation
same,hydrolysis to the linear form in PBS,[4],No hydrolysis
"O=P1(O)OCC(O)CO1 (stereo not drawn) [1,3 cGP(E)]",activation of the Raf1/MAPK cascade,[6],≤ 5 fold
same,"stimulation of 35-40 kD protein kinase (P42 MAPK, ERK 2)",[7],activated
same,effect on the JNK pathway,[8],unaffected
same,inhibition of the lysate phosphatases (in words),[9],limited inhibition
"O=P1(O)OCC(O)CO1 (stereo not drawn) [1,3 cGP, 1,3 cyclic glycerophosphate]",hydrolysis to the linear form by cell lysate,[3],No hydrolysis
same,"displacement of 1,3-cP32P in perforated CHO cells",[2],clear binding competition
same,inhibition of cell lysate phosphatase activity,[9],approximately 10%
same,hydrolysis to the linear form in PBS,[4],No hydrolysis
same,level of expression of estrogen receptor (ER) versus growth medium alone,[10],increases
same,level of expression of estrogen receptor (ER) versus growth medium alone,"[10]; listed as 1,3, cGP",significantly higher
same,"effect of unlabeled competitor on the uptake profile of 1,3-cP32P",[11],remained essentially unaltered
"O=P(O)(O)OC(CO)CO [βGP, β-Glycerophosphate]",level of phosphorylation in intracellular proteins after extracellular application,[1],lack this activity
insulin: hormone; binding to its receptor results in tyrosine phosphorylation of 117 kD and 200 kD receptor proteins,phosphorylation of the insulin receptors,[12]; 0.1 nM insulin,partial phosphorylation
same,phosphorylation of the insulin receptors,[12]; 1 nM insulin,maximal phosphorylation
